# Results taken from patent US9783551B2, “Pyranochromenyl phenol derivative, and pharmaceutical composition for treating metabolic syndrome or inflammatory disease” (GLACEUM, INC., priority 2013, dated 2017).
# How the values were obtained:
# [1] = tested on: DIO mice; experiment: Anti-obesity effect for DIO mice (body weight); format: in vivo, C57BL/6 mice; settings: Mus musculus, 672 h, 4 weeks, oral gavage once daily
# Protocol: (§1) Five-week-old female C57BL/6 mice (Narabio Co., Ltd.) were purchased and fed with only high-fat diet for at least 10 weeks to produce diet induced obesity ([…]) mice. Samples were exactly taken from Preparation Example 1 (glabridin) and the compounds of Examples of the present invention (Compounds 1 to 5, 7, 9, 11, 14 to 16, 21, and 23) according to the administration dose and put into Falcon tubes, 3 ml of a 0.5% methyl cellulose aqueous solution was added thereto and a vortex mixer was used to primarily mix the ingredients in a soft manner, and then a homogenizer (30,000 rpm, Ultra-Turrax® T10 Basic, IKA) was used to treat the sample for 3 minutes while 1.5 ml of a 0.5% methyl cellulose aqueous solution was added thereto. The sample thus prepared was administered through oral gavage using a disposable plastic syringe once daily for 28 days (4 weeks). The body weight was measured twice a week while the DIO mice were bred in this manner. Based on the data thus calculated, the anti-obesity effect (%) was calculated according to the equation defined as follows. Anti-Obesity Effect={(Body weight of control group)−(Body weight of experimental group)}/(Body weight of control group)×100
# [2] = target: PTP1B (Homo sapiens (Human), UniProt P18031); experiment: Experiment of PTP1B inhibition (p-NPP dephosphorylation); format: biochemical; settings: 2 mM p-NPP substrate, 30° C., 30 minutes
# PTP1B, sequence (P18031 whole entry, species assumed): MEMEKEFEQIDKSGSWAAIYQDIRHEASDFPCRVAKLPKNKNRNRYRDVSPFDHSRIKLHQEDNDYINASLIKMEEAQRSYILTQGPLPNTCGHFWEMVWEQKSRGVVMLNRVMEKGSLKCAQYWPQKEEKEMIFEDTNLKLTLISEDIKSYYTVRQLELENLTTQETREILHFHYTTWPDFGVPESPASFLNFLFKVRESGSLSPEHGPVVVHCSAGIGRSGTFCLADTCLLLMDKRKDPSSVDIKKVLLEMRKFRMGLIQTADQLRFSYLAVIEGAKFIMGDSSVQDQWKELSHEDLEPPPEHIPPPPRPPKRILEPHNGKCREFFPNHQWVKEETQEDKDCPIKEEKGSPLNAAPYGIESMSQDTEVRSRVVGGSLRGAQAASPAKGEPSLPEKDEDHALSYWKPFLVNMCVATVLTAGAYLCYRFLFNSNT
# Text: With respect to PTP1B, the degrees of inhibition (IC50 The half maximal inhibitory concentration) of glabridin, and compounds of Preparation Example 2 (Compound 1), Example 2 (Compound 3), Example 3 (Compound 4), Example 4 (Compound 5), Example 13 (Compound 14), Example 14 (Compound 15), Example 15 (Compound 16), Example 17 (Compound 18), Example 18 (Compound 19) and Example 20 (Compound 21) were compared to each other. For this purpose, the degree of inhibition activity for PTP1B was investigated by using 2 mM p-nitrophenyl phosphate (p-NPP) as a substrate to measure the dephosphorylation degree. First, PTP1B diluted with distilled water was reacted with 2 mM p-nitrophenyl phosphate {p-NPP, 0.1 M NaCl, 1 mM EDTA, 50 mM citrate pH 6.0, and 1 mM dithiothreitol (DTT)} and Compound 1 at various concentrations at 30° C. for 30 minutes, and then the reaction was terminated with a 1 N-sodium hydroxide (NaOH) solution. The absorbance of the samples thus prepared was measured to confirm the inhibition degree (IC50: The half maximal inhibitory concentration) for PTP1B activity according to the concentration of Compound 1. Even for glabridin, Compound 3, Compound 4, Compound 5, Compound 14, Compound 15, Compound 16, Compound 18, Compound 19, and Compound 21, the same measurement was performed.
# [3] = tested on: DIO mice; experiment: Organ weights and blood biochemistry of DIO mice after 28 days of administration; format: in vivo, C57BL/6 mice
# Protocol: as §1
# After the experiment was performed for 28 days (4 weeks) as described above, blood was simultaneously taken while the experimental animal was finally sacrificed, and each of the organs (liver, heart, kidney, pancreas, fat tissues and the like) was removed to measure the weight and observe peculiar matters.
# In Table 3, { }, ( ) and the like were used in order to differentiate experiments which had been performed at different periods. Experiments without the parenthesis were those simultaneously performed under the same conditions.
# [4] = tested on: BV2 microglia cells; experiment: BV2 cell NO assay (LPS-induced NO production, Griess reagent); format: cell-based; settings: Mus musculus, BV-2, LPS 1 μg/ml, 24 hours
# Protocol: (§2) After the pretreatment, 0.5 mg/ml of the MTT (Sigma, M2128) reagent was further added thereto. After the cells were cultured in a 5% CO2 incubator, the supernatant was discarded, 150 μl of DMSO was added and was shaken for 30 minutes, and an ELISA micro plate reader (Bio Rad Laboratories Inc., California, USA, Model 680) was used to measure the absorbance at a wavelength of 540 nm. All the experimental values were calculated as an average value of three repeated experimental values of the cell protection rate for the control group, and an experiment of suppressing the NO production for each compound was carried out at a concentration in which no cytotoxicity was shown.
# (§3) After the reaction, an ELISA micro plate reader (Bio Rad Laboratories Inc., California, USA, Model 680) was used to measure the absorbance at a wavelength of 540 nm. The suppression rate was calculated as a difference in amount of NO produced between the control group and the experimental group, and as shown in the following Table 6 and FIG. 6, Compounds 4, 5, 15, 16, 18, and the like of the present invention were excellent in the effect of suppressing the production of NO, and the effect is also about 5 times to about 9 times better than that of glabridin.
# [5] = tested on: RAW264.7 macrophages; experiment: RAW264.7 macrophage NO assay (LPS-induced NO production, Griess reagent); format: cell-based
# Protocol: as §2, with “pretreatment,” for “pretreatment, 0.5 mg/ml of”, “reagent at a concentration of 0.5 mg/ml” for “reagent”, “incubator for 4 hours,” for “incubator,”
# as §3, with “7,” for “6 and FIG. 6,”, “NO.” for “NO, and the effect is also about 5 times to about 9 times better than that of glabridin.”
# [6] = 150 mg/kg, experiment without parenthesis
smiles,measurement,setting,value
"CCC1(CC)CCc2c(ccc3c2OCC(c2ccc(OC)cc2O)C3)O1 (stereo not shown) [Compound 23, 3-(2-hydroxy-4-methoxyphenyl)-8,8-diethyl-2,3,4,8,9,10-hexahydropyrano [2,3-f] chromene]",inhibition in vivo at 200 mg/kg,[1],11%
"COc1ccc(C2COc3c(ccc4c3CCC(C)(C)O4)C2)c(O)c1 (stereo not shown) [Compound 14, 3-(2-hydroxy-4-methoxyphenyl)-8,8-dimethyl-2,3,4,8,9,10-hexahydropyrano [2,3-f] chromene]",IC50,[2],6.5 µM
same,inhibition in vivo at 150 mg/kg,[1],12%
same,ALT (U/L),[3]; [6],51 U/L
same,AST (U/L),[3]; [6],131 U/L
same,BMI,[3]; [6],3.9
same,FFA (μEq/L),[3]; [6],2160 μEq/L
same,"Fat (g), weight of fat removed around the epididymis and the kidney",[3]; [6],2.23 g
same,LDL,[3]; [6],13 mg/dL
same,"Liver (g), weight of liver",[3]; [6],1.19 g
"CCCCCOc1ccc(C2COc3c(ccc4c3CCC(C)(C)O4)C2)c(O)c1 (stereo not shown) [Compound 19, 3-(2-hydroxy-4-n-pentoxyphenyl)-8,8-dimethyl-2,3,4,8,9,10-hexahydropyrano [2,3-f] chromene]",IC50,[2],1.2 µM
"COCOc1ccc(C2COc3c(ccc4c3CCC(C)(C)O4)C2)c(O)c1 (stereo not shown) [Compound 21, 3-(2-hydroxy-4-(methoxymethoxy)phenyl)-8,8-dimethyl-2,3,4,8,9,10-hexahydropyrano [2,3-f] chromene]",IC50,[2],2.3 µM
same,inhibition in vivo at 150 mg/kg,[1],16%
same,ALT (U/L),[3]; [6],46 U/L
same,AST (U/L),[3]; [6],104 U/L
same,BMI,[3]; [6],3.6
same,FFA (μEq/L),[3]; [6],1520 μEq/L
same,"Fat (g), weight of fat removed around the epididymis and the kidney",[3]; [6],2.13 g
same,LDL,[3]; [6],12 mg/dL
same,"Liver (g), weight of liver",[3]; [6],1.11 g
"Cc1cc(O)c(C2COc3c(ccc4c3CCC(C)(C)O4)C2)cc1C (stereo not shown) [Compound 11, 3-(2-hydroxy-4,5-dimethylphenyl)-8,8-dimethyl-2,3,4,8,9,10-hexahydropyrano [2,3-f] chromene]",inhibition in vivo at 150 mg/kg,[1],8%
"CC1(C)CCc2c(ccc3c2OCC(c2ccccc2O)C3)O1 (stereo not shown) [Compound 2, 3-(2-hydroxyphenyl)-8,8-dimethyl-2,3,4,8,9,10-hexahydropyrano [2,3-f] chromene]",inhibition in vivo at 200 mg/kg,[1],8%
"CCCCc1ccc(C2COc3c(ccc4c3CCC(C)(C)O4)C2)c(O)c1 (stereo not shown) [Compound 7, 3-(2-hydroxy-4-butylphenyl)-8,8-dimethyl-2,3,4,8,9,10-hexahydropyrano [2,3-f] chromene]",inhibition in vivo at 150 mg/kg,[1],14%
"CCCCOc1ccc(C2COc3c(ccc4c3CCC(C)(C)O4)C2)c(O)c1 (stereo not shown) [Compound 18, 3-(2-hydroxy-4-butoxyphenyl)-8,8-dimethyl-2,3,4,8,9,10-hexahydropyrano [2,3-f] chromene]",IC50,[2],3.4 µM
same,IC50,[4],2.8 µM
same,IC50,"[5]; Mus musculus, RAW264.7, NO production, LPS 1 μg/ml, 24 hours",5.6 µM
same,effect of suppressing the production of NO,"[5]; RAW264.7 macrophages, in words",excellent
"CC1(C)CCc2c(ccc3c2OC[C@@H](c2ccc(O)cc2O)C3)O1 [Compound 1, 3″,4″-dihydroglabridin]",IC50,[2],46 µM
same,inhibition in vivo at 150 mg/kg,[1],8%
same,ALT (U/L),[3]; [6],34 U/L
same,AST (U/L),[3]; [6],93 U/L
same,BMI,[3]; [6],3.8
same,FFA (μEq/L),[3]; [6],1400 μEq/L
same,"Fat (g), weight of fat removed around the epididymis and the kidney",[3]; [6],2.07 g
same,LDL,[3]; [6],11 mg/dL
same,"Liver (g), weight of liver",[3]; [6],1.24 g
"COCCc1ccc(C2COc3c(ccc4c3CCC(C)(C)O4)C2)c(O)c1 (stereo not shown) [Compound 9, 3-(2-hydroxy-4-(2-methoxyethyl)phenyl)-8,8-dimethyl-2,3,4,8,9,10-hexahydropyrano [2,3-f] chromene]",inhibition in vivo at 150 mg/kg,[1],10%
"Cc1ccc(C2COc3c(ccc4c3CCC(C)(C)O4)C2)c(O)c1 (stereo not shown) [Compound 3, 3-(2-hydroxy-4-methylphenyl)-8,8-dimethyl-2,3,4,8,9,10-hexahydropyrano [2,3-f] chromene]",IC50,[2],7 µM
same,inhibition in vivo at 200 mg/kg,[1],19%
same,ALT (U/L),"[3]; 200 mg/kg, { } experiment",{73} U/L
same,AST (U/L),"[3]; 200 mg/kg, { } experiment",{152} U/L
same,BMI,"[3]; 200 mg/kg, { } experiment",{3.5}
same,FFA (μEq/L),"[3]; 200 mg/kg, { } experiment",{2390} μEq/L
same,"Fat (g), weight of fat removed around the epididymis and the kidney","[3]; 200 mg/kg, { } experiment",{1.62} g
same,LDL (mg/dL),"[3]; 200 mg/kg, { } experiment",{22} mg/dL
same,"Liver (g), weight of liver","[3]; 200 mg/kg, { } experiment",{1.53} g
